{"source": "ChEMBL document CHEMBL1649492", "about": "“Population modeling and Monte Carlo simulation study of the pharmacokinetics and antituberculosis pharmacodynamics of rifampin in lungs” (Antimicrob Agents Chemother, 2009)", "key": {"Homo sapiens": {"system": "Homo sapiens", "assay": "Volume of distribution in patient with tuberculosis at […], po administered as single dose", "assay_type": "ADME, organism-based", "parameters": "route oral", "settings": "in vivo"}, "[1]": {"assay": "Volume of distribution in epithelial lining fluid of patient with tuberculosis at […], po administered as single dose", "assay_type": "ADME, organism-based", "parameters": "route oral", "settings": "human, in vivo"}, "[2]": {"assay": "Volume of distribution in alveolar cells of patient with tuberculosis at […], po administered as single dose", "assay_type": "ADME, organism-based, Pneumocyte", "parameters": "route oral", "settings": "human, in vivo"}, "[3]": {"assay": "Ratio of AUC (0 to 24 hrs) to MIC in plasma of patient with Mycobacterium tuberculosis infection at […], po administered as single dose", "assay_type": "functional"}, "[4]": {"assay": "Ratio of AUC (0 to 24 hrs) to MIC in epithelial lining fluid of patient with Mycobacterium tuberculosis infection at […], po administered as single dose", "assay_type": "functional"}}, "note": "Several values for one entry are separate records, joined by “and”; a condition that tells them apart may be missing. Identical values can stand only once."}
{"smiles": "CO[C@H]1/C=C/O[C@@]2(C)Oc3c(C)c(O)c4c(O)c(c(/C=N/N5CCN(C)CC5)c(O)c4c3C2=O)NC(=O)/C(C)=C\\C=C\\[C@H](C)[C@H](O)[C@@H](C)[C@@H](O)[C@@H](C)[C@H](OC(C)=O)[C@@H]1C", "note": "[RIFAMPIN]", "values": [{"measurement": "Vd", "setting": "Homo sapiens", "result": "11.56 L and 10.16 L and 8.05 L"}, {"measurement": "Vd", "setting": "[1]", "result": "102.6 L and 102.8 L and 52.1 L"}, {"measurement": "Vd", "setting": "[2]", "result": "49.94 L and 43.66 L and 33.65 L"}, {"measurement": "RatioAUC/MIC", "setting": "[3]", "result": ">=271"}, {"measurement": "RatioAUC/MIC", "setting": "[4]", "result": ">=665"}]}
